# Measured values as given in US8372967B2, “Compounds and methods for modulating expression of GCCR” (Isis Pharmaceuticals, Inc., priority 2006, dated 2013).
# Strand notation (5' to 3'): a small letter for the sugar, then the base; units joined by * are phosphorothioate-linked, units joined directly phosphodiester-linked; [ ] holds rarer units or linkages, { } end groups; capitals alone tell only the bases. [PAM-N] = nucleoside carrying a 2'-(butylacetamido)-palmitamide group (palmitic acid C16 conjugate) (N: the base); e = 2'-O-(2-methoxyethyl) (MOE); l = locked nucleic acid (LNA); [5mC] = 5-methylcytosine; d = 2'-deoxy (DNA)
# Columns and labels:
# monkey GCGR mRNA = assay: Antisense inhibition of GCGR in primary monkey hepatocytes (Table 80); format: cell-based; conditions: relative to untreated control cells
# Procedure: Additional short antisense compounds targeted to a GCGR nucleic acid were tested for their effects on monkey GCGR mRNA in vitro. Cultured primary monkey hepatocytes were treated as described herein with 25, 50, 100 or 200 nM of short antisense compound. After the treatment period, RNA was isolated from the cells and GCGR mRNA levels were measured by quantitative real-time PCR, as described herein. GCGR mRNA levels were adjusted according to total RNA content as measured by RIBOGREEN®. Results are presented in Table 80 as percent reduction in GCGR mRNA, relative to untreated control cells.
# GCGR mRNA = assay: Antisense inhibition of GCGR in HepG2 cells (Table 79); format: cell-based, human; conditions: for percent reduction in GCGR mRNA: HepG2 cells, relative to untreated control cells
# Procedure: Short antisense compounds targeted to a GCGR nucleic acid were tested for their effects on GCGR mRNA in vitro.
# Cultured HepG2 cells at a density of 10000 cells per well in a 96-well plate were treated as described herein with 25, 50, 100 or 200 nM of antisense oligonucleotide. After the treatment period, RNA was isolated from the cells and GCGR mRNA levels were measured by quantitative real-time PCR, as described herein. GCGR mRNA levels were adjusted according to total RNA content as measured by RIBOGREEN®. Results are presented as percent reduction in GCGR mRNA, relative to untreated control cells.
# [1] = HbA1c status in ZDF rat (Table 72); format: in vivo; conditions: for Percentage HbA1c: ZDF rat, 400 nM/kg i.p. once a week
# Procedure: (§1) ISIS 388625, 388626 and control oligo ISIS 388628 were analyzed for their effect on ZDF rat plasma glucose levels and HbA1c. The leptin receptor deficient Zucker diabetic fatty (ZDF) rat is a useful model for the investigation of type 2 diabetes. Diabetes develops spontaneously in these male rats at ages 8-10 weeks, and is associated with hyperphagia, polyuria, polydipsia, and impaired weight gain, symptoms which parallel the clinical symptoms of diabetes (Phillips M S, et al., 1996, Nat Genet. 13, 18-19). Six week old ZDF rats were injected intraperitoneally with short antisense compound at a dose of 400 nM/kg once a week for twelve weeks. Data are illustrated in Tables 71 and 72.
# [2] = Plasma glucose in ZDF rat (Table 71); format: in vivo
# Procedure: as §1
# ApoB mRNA [3] = assay: ApoB mRNA in liver and estimated ED50, compounds comprising palmitic acid conjugates (Table 95); format: in vivo, mouse; conditions: ApoB mRNA in liver, Balb/c mice, relative to saline
# Procedure: (§2) 0.4, and 0.16 umol/kg. Each dose group consisted of four animals. A 5-10-5 MOE gapmer was used for a control treatment. Mice were sacrificed approximately 48 hours following the final dose. Liver tissue was collected for RNA isolation, and blood was collected for serum chemistry analyses. ApoB mRNA levels were measured by real-time PCR as described herein. ApoB mRNA levels were normalized to RNA levels as determined by RIBOGREEN, and are presented in Table 95 as percent inhibition relative to ApoB mRNA levels in saline-treated control animals.
# At the 2.5 umol/kg dose, ApoB inhibition by the short antisense compounds was greater than observed with a 5-10-5 MOE gapmer at an equivalent dose. […] Triglycerides were reduced at the 2.5 and […] doses of ISIS 387462 and ISIS 391872.
# PTP1B mRNA [4] = assay: Antisense inhibition of human PTP1B in HuVEC cells, 3 nM (Table 84); format: cell-based
# Procedure: Short antisense compounds targeted to a PTP1B nucleic acid were tested for their effects on PTP1B mRNA in vitro. Cultured HuVEC cells at a density of 5000 cells per well in a 96-well plate were treated as described herein with 3 nM of short antisense compound. After the treatment period, RNA was isolated from the cells and PTP1B mRNA levels were measured by quantitative real-time PCR, as described herein. PTP1B mRNA levels were adjusted according to total RNA content as measured by RIBOGREEN®. Results are presented as percent inhibition of PTP1B (% Inhib), relative to untreated control cells.
# PTP1B mRNA [5] = assay: Antisense inhibition of human PTP1B in HepG2 cells, 25 nM (Table 85); format: cell-based
# Procedure: Short antisense compounds targeted to a PTP1B nucleic acid were tested for their effects on PTP1B mRNA in vitro. Cultured HepG2 cells at a density of 10000 cells per well in a 96-well plate were treated with 25 nM of antisense oligonucleotide. After the treatment period, RNA was isolated from the cells and PTP1B mRNA levels were measured by quantitative real-time PCR, as described herein. PTP1B mRNA levels were adjusted according to total RNA content as measured by RIBOGREEN®. Results are presented as percent inhibition (% Ihib) of PTP1B, relative to untreated control cells.
# mouse SGLT2 mRNA = assay: Mouse SGLT2 mRNA in kidney, additional 1-10-1 and 2-8-2 MOE gapmers (Table 68); format: in vivo; conditions: Balb/c mouse kidney
# Procedure: 1-10-1 and 2-8-2 MOE gapmer short antisense compounds were designed to target different regions of the mouse SGLT2 RNA but have complementarity across species. […] All cytidine residues are 5-methylcytidines.
# The short antisense compounds were analyzed for their effect on mouse SGLT2 mRNA levels in vivo. Data was taken from three experiments in which male 6-week old Balb/c mice were dosed twice per week for three weeks with 0.5, 0.1, or 0.02 umol/kg of either a 1-10-1 or 2-8-2 MOE gapmer given by intraperitoneal injection. Mice were sacrificed 48 hours following last administration and evaluated for SGLT2 levels in kidney. Target levels were determined by RT, real-time PCR as described by other examples herein. PCR results were normalized to an internal ISIS control.
# ApoB mRNA [6] = assay: ApoB mRNA in liver and ED50, single dose of BNA short antisense compounds (Table 92); format: in vivo, mouse; conditions: ApoB mRNA in liver, single i.p. injection
# Procedure: as §2, with “The short antisense compounds tested were ISIS 387462” for “0.4,”, “ISIS 398296.” for “0.16 umol/kg.”, “92” for “95”
# At the 8 umol/kg dose, ApoB inhibition by the short antisense compounds was greater than observed with a 5-10-5 MOE gapmer at an equivalent dose. […] Triglycerides were reduced at the highest dose.
# [7] = single i.p. injection 0.16 umol/kg
# [8] = single i.p. injection 0.4 umol/kg
# [9] = single i.p. injection 1.0 umol/kg
# [10] = ZDF rats, 400 nM/kg i.p. once a week for twelve weeks, compared to PBS and control
substance,measurement,setting,value
327161 (antisense eA*eG*e[5mC]*dT*dG*d[5mC]*dT*dG*dT*dA*d[5mC]*eA*eT*e[5mC]) [compound 327161],percent reduction in GCGR mRNA,monkey GCGR mRNA; 25 nM,−19%
same,percent reduction in GCGR mRNA,monkey GCGR mRNA; 50 nM,−33%
same,percent reduction in GCGR mRNA,monkey GCGR mRNA; 100 nM,−55%
same,percent reduction in GCGR mRNA,monkey GCGR mRNA; 200 nM,−54%
same,percent reduction in GCGR mRNA,GCGR mRNA; 25 nM,−36%
same,percent reduction in GCGR mRNA,GCGR mRNA; 50 nM,−30%
same,percent reduction in GCGR mRNA,GCGR mRNA; 100 nM,−33%
same,percent reduction in GCGR mRNA,GCGR mRNA; 200 nM,−64%
388626 (eG*eG*d[5mC]*dA*dT*dG*dA*dG*d[5mC]*dT*eT*e[5mC]) [compound 388626],Percentage HbA1c,[1]; Day 40,6.6%
same,Percentage HbA1c,[1]; Day 55,5.9%
same,Percentage HbA1c,[1]; Day 68,4.0%
same,Plasma glucose levels,"[2]; Day 10, ZDF rat, 400 nM/kg i.p. once a week",434.7 mg/dL
same,Plasma glucose levels,"[2]; Day 40, ZDF rat, 400 nM/kg i.p. once a week",300.5 mg/dL
same,Plasma glucose levels,"[2]; Day 55, ZDF rat, 400 nM/kg i.p. once a week",219.8 mg/dL
same,Plasma glucose levels,"[2]; Day 66, ZDF rat, 400 nM/kg i.p. once a week",379.8 mg/dL
391871 ([PAM-G]*eG*dT*dA*dC*dA*dT*dG*dG*dA*dA*dG*eT*e[5mC]) [compound 391871],% Inhib,ApoB mRNA [3]; [7],0%
same,% Inhib,ApoB mRNA [3]; [8],5%
same,% Inhib,ApoB mRNA [3]; [9],18%
391872 ([PAM-G]*lG*dT*dA*dC*dA*dT*dG*dG*dA*dA*dG*lT*l[5mC]) [compound 391872],% Inhib,ApoB mRNA [3]; [7],18%
same,% Inhib,ApoB mRNA [3]; [8],50%
same,% Inhib,ApoB mRNA [3]; [9],92%
404137 (antisense e[5mC]*eA*dG*dT*dG*dT*dG*d[5mC]*dA*d[5mC]*dA*d[5mC]*eA*eG) [compound 404137],% Inhib,PTP1B mRNA [4],76%
same,% Inhib,PTP1B mRNA [5],71%
404138 (antisense e[5mC]*eT*d[5mC]*dA*dG*dT*dG*dT*dG*d[5mC]*dA*d[5mC]*eA*e[5mC]) [compound 404138],% Inhib,PTP1B mRNA [4],76%
same,% Inhib,PTP1B mRNA [5],86%
404139 (eG*eT*dG*d[5mC]*dA*d[5mC]*dA*d[5mC]*dA*dG*d[5mC]*dT*eG*eA) [compound 404139],% Inhib,PTP1B mRNA [4],80%
same,% Inhib,PTP1B mRNA [5],45%
404140 (eG*e[5mC]*dA*d[5mC]*dA*d[5mC]*dA*dG*d[5mC]*dT*dG*dA*eG*eG) [compound 404140],% Inhib,PTP1B mRNA [4],73%
same,% Inhib,PTP1B mRNA [5],93%
ISIS 327161: 3-10-3 MOE gapmer targeted to GCGR (eA*eG*e[5mC]*dT*dG*d[5mC]*dT*dG*dT*dA*d[5mC]*eA*eT*e[5mC]),GCGR mRNA,"GCGR mRNA; HepG2, 25, 50, 100 or 200 nM",reduced GCGR mRNA in a dose-dependent manner
"ISIS 388626: GGCATGAGCTTC 2-8-2 MOE, SGLT2 (eG*eG*d[5mC]*dA*dT*dG*dA*dG*d[5mC]*dT*eT*e[5mC])",HbA1C,[1]; [10],significantly reduced
same,% change in SGLT2 expression relative to saline,mouse SGLT2 mRNA; 0.02 umol/kg i.p. twice per week for three weeks,−45%
same,% change in SGLT2 expression relative to saline,mouse SGLT2 mRNA; 0.1 umol/kg i.p. twice per week for three weeks,−60%
same,% change in SGLT2 expression relative to saline,mouse SGLT2 mRNA; 0.5 umol/kg i.p. twice per week for three weeks,−80%
same,Plasma glucose levels,[2]; [10],significantly reduced
"ISIS 398296: GGTACATGGAAGTC 2-10-2 (6′S)-6′-methyl-Methyleneoxy BNA, Unmodified Cytosines, ApoB (2-10-2 6'-(S)-methyl BNA gapmer, chemistry not fully specified)",ED50,ApoB mRNA [6],8.7 mg/kg
